18 compounds from patent US11866430B2, “Naphthyridinone compounds useful as T cell activators” (priority 2018, dated 2024) can be followed below.

The structures appear in SMILES notation. pIC50: −log10 of the molar value. Read-outs that look alike come from different tables or passages of the source.

One assay concerns the target human DGKα (Homo sapiens (Human), UniProt P23743). The assay is described as follows: biochemical. The conditions noted are these: detergent/lipid micelle substrate; read-out: DGKα IC50. As to the method: (§1) The DGKα and DGKζ reactions were performed using either extruded liposome (DGKα and DGKζ LIPGLO assays) or detergent/lipid micelle substrate (DGKα and DGKζ assays). The reactions were carried out in 50 mM MOPS pH 7.5, 100 mM NaCl, 10 mM MgCl2, 1 μM CaCl2, and 1 mM DTT (assay buffer). The reactions using a detergent/lipid micelle substrate also contained 50 mM octyl B-D-glucopyranoside. […] The lipid substrate concentrations were […], 0.25 mM DAG, and 2.75 mM PC for the extruded liposome reactions.
(§2) The compound inhibition studies were carried out as follows: 50 nL droplets of each test compound (top concentration 10 mM with 11 point, 3-fold dilution series for each compound) solubilized in DMSO were transferred to wells of a white 1536 well plate (Corning 3725). A 5 mL enzyme/substrate solution at 2× final reaction concentration was prepared by combining 2.5 mL 4× enzyme solution (20 nM DGKα or DGKζ (prepared as described below) in assay buffer) and 2.5 mL of either 4× liposome or 4× detergent/lipid micelle solution (compositions described below) and incubated at room temperature for 10 minutes. Next, 1 μL 2× enzyme/substrate solution was added to wells containing the test compound and reactions were initiated with the addition of 1 μL 300 uM ATP. The reactions were allowed to proceed for 1 hr, after which 2 μL Glo Reagent (Promega V9101) was added and incubated for 40 minutes. Next, 4 μL Kinase Detection Reagent was added and incubated for 30 minutes. Luminescence was recorded using an EnVision microplate reader. […] The compounds were evaluated at 11 concentrations to determine IC50.
(§3) The detergent/lipid micelle was prepared by combining 15 g phosphatidylserine (Avanti 840035P) and 1 g diacylglycerol (800811O) and dissolving into 150 mL chloroform in a 2 L round bottom flask. Chloroform was removed under high vacuum by rotary evaporation. The resulting colorless, tacky oil was resuspended in 400 mL 50 mM MOPS pH 7.5, 100 mM NaCl, 20 mM NaF, 10 mM MgCl2, 1 μM CaCl2), 1 mM DTT, and 200 mM octyl glucoside by vigorous mixing. The lipid/detergent solution was split into 5 mL aliquots and stored at −80° C.
(§4) Human DGK-alpha-TVMV-His-pFBgate and human DCK-zeta-transcript variant-2-TVMV-His-pFBgate baculovirus samples were generated using the Bac-to-Bac baculovirus expression system (Invitrogen) according to the manufacturer's protocol. The DNA used for expression of DGK-alpha and DGK-zeta have SEQ ID NOs: 1 and 3, respectively. Baculovirus amplification was achieved using infected Sf9 cells at 1:1500 virus/cell ratios, and grown for 65 hours at 27° C. post-transfection.
(§5) The expression scale up for each protein was carried out in the Cellbag 50 L WAVE-Bioreactor System 20/50 from GE Healthcare Bioscience. 12 L of 2×10^6 cells/mL Sf9 cells (Expression System, Davis, Calif.) grown in ESF921 insect medium (Expression System) were infected with virus stock at 1:200 virus/cell ratios, and grown for 66-68 hours at 27° C. post-infection. The infected cell culture was harvested by centrifugation at 2000 rpm for 20 min 4° C. in a SORVALL® RC12BP centrifuge. The cell pellets were stored at −70° C. until purification.
(§6) Full length human DGKα and DGKζ, each expressed containing a TVMV-cleavable C-terminal Hexa-His tag sequence (SEQ ID NOs: 2 and 4, respectively) and produced as described above, were purified from Sf) baculovirus-infected insect cell paste. The cells were lysed using nitrogen cavitation method with a nitrogen bomb (Parr Instruments), and the lysates were clarified by centrifugation. […] The three steps column chromatography included nickel affinity resin capture (i.e. HisTrap FF crude, GE Healthcare), followed by size exclusion chromatography (i.e. HiLoad 26/600 Superdex 200 prep grade, GE Healthcare for DGK-alpha, and HiPrep 26/600 Sephacryl S 300_HR, GE Healthcare for DGK-zeta).

For a further assay, the target named is human DGKζ (Homo sapiens (Human), UniProt Q13574). The assay is described as follows: DGKζ assay (detergent/lipid micelle substrate). The class given is biochemical. As to the method: as §1, §2, §3, §4, §5, §6
Chain of human DGKζ (Q13574 other isoform, or with tags, fused parts or gaps): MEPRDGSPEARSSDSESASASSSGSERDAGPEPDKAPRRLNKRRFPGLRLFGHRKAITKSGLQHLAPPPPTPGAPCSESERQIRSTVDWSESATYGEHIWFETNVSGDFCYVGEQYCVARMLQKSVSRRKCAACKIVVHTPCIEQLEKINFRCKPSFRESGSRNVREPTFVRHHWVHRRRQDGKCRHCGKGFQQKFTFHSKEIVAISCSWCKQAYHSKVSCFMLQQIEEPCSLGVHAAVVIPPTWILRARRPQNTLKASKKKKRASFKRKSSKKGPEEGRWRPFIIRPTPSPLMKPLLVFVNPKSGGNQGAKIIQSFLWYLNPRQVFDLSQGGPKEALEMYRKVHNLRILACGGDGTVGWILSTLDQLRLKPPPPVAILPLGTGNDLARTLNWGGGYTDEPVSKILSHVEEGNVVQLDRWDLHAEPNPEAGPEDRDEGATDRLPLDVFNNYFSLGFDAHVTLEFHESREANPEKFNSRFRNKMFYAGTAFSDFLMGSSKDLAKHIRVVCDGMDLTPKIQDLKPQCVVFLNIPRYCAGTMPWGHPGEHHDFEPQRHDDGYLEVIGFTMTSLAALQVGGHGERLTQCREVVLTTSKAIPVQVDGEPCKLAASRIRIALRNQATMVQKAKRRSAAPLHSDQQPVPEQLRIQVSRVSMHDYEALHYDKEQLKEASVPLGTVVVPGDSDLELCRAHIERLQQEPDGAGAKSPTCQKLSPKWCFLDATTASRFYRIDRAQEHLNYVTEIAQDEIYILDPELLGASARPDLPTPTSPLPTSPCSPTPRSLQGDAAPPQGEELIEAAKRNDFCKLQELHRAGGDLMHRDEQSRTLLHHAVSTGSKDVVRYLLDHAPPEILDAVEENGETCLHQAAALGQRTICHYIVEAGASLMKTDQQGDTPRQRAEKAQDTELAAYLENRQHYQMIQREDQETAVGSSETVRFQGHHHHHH
Assay [1] concerns pre-activated CD4 T cells and Raji cells. The assay is described as follows: Raji CD4 T Cell IL2 Assay. Format: cell-based.
The mark [2] stands for this setting: detergent/lipid micelle substrate, read-out: DGKζ IC50.

Chain of human DGKα (P23743 other isoform, or with tags, fused parts or gaps): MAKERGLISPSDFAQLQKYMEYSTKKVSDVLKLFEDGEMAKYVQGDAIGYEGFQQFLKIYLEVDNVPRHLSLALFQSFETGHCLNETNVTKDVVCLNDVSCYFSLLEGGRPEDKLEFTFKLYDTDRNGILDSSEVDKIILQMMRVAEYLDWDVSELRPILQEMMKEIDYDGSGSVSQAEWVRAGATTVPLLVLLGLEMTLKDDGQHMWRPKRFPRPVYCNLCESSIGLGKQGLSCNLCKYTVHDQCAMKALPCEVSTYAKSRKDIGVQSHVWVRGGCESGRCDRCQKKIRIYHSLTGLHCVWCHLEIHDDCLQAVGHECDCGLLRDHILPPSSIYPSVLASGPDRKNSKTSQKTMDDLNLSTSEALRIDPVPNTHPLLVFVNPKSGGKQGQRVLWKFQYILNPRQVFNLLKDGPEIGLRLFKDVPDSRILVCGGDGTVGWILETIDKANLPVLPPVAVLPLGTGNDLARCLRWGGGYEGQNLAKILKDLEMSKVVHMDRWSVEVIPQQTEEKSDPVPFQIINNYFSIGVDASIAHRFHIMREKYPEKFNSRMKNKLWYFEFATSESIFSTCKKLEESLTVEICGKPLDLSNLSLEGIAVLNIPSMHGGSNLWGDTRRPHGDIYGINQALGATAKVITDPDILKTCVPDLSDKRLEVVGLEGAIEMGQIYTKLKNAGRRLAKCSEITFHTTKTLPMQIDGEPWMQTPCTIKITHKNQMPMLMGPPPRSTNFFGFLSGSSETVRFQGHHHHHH

As usually defined, the pIC50 is the negative decadic logarithm of the IC50, by convention in mol/L. For `Cc1cc(F)cc(CN2CCN(c3c(C#N)c(=O)n(C)c4ccc(Cl)nc34)CC2)c1` [Example 290, 6-chloro-4-{4-[(3-fluoro-5-methylphenyl)methyl]piperazin-1-yl}-1-methyl-2-oxo-1,2-dihydro-1,5-naphthyridine-3-carbonitrile], the negative-log IC50 (pIC50) on human DGKα is 5.66; on human DGKζ (setting [2]) it was below 3.62; in assay [1] (Homo sapiens, Raji), 6.96.
The like results for `CC(=O)Nc1ccccc1CN1CCN(c2c(C#N)c(=O)n(C)c3ccc(Br)nc23)CC1` [Example 215, N-(2-((4-(6-bromo-3-cyano-1-methyl-2-oxo-1,2-dihydro-1,5-naphthyridin-4-yl)piperazin-1-yl)methyl)phenyl)acetamide] were, in that order, 5.39, below 4.09 and 6.32.
The like results for `Cn1c(=O)c([N+](=O)[O-])c(N2CCN(C(c3ccc(F)cc3)c3ccccc3O)CC2)c2nc(Br)ccc21` (stereo not drawn) [Example 70, 6-bromo-4-(4-((4-fluorophenyl)(2-hydroxyphenyl)methyl)piperazin-1-yl)-1-methyl-3-nitro-1,5-naphthyridin-2(1H)-one] were, in that order, 6.89, 5.48 and 8.05.
The corresponding values for `Cc1ccccc1C(c1ccccc1O)N1CCN(c2c([N+](=O)[O-])c(=O)n(C)c3ccc(Br)nc23)CC1` (stereo not drawn) [Example 73, 6-bromo-4-(4-((2-hydroxyphenyl)(o-tolyl)methyl)piperazin-1-yl)-1-methyl-3-nitro-1,5-naphthyridin-2(1H)-one] are 6.05, 5.68 and 7.59.
On to `O=c1c([N+](=O)[O-])c(N2CCN(C(c3ccccc3)c3ccccc3)CC2)c2ncccc2n1CCC=C(F)F` [Example 186, 4-(4-benzhydrylpiperazin-1-yl)-1-(4,4-difluorobut-3-en-1-yl)-3-nitro-1,5-naphthyridin-2(1H)-one], for which the negative-log IC50 (pIC50) at human DGKα was below 3.62; at human DGKζ (setting [2]), below 3.62; in assay [1] (Homo sapiens, Raji), 5.52.
Regarding `Cn1c(=O)c([N+](=O)[O-])c(N2CCN(C(c3ccc(F)cc3)c3cccc(F)c3O)CC2)c2nc(Br)ccc21` (single isomer, unassigned) [Example 76, 6-bromo-4-(4-((3-fluoro-2-hydroxyphenyl)(4-fluorophenyl)methyl)piperazin-1-yl)-1-methyl-3-nitro-1,5-naphthyridin-2(1H)-one], the pIC50 at human DGKα is 5.26; at human DGKζ (DGKζ IC50, detergent/lipid micelle substrate), 5.60; in assay [1] it was 7.17.
`C#CCOc1ccccc1C(c1ccc(F)cc1)N1CCN(c2c(C#N)c(=O)n(C)c3ccc(Br)nc23)CC1` (single isomer, unassigned) [Example 7, 6-bromo-4-{4-[(4-fluorophenyl) [2-(prop-2-yn-1-yloxy)phenyl]methyl]piperazin-1-yl}-1-methyl-2-oxo-1,2-dihydro-1,5-naphthyridine-3-carbonitrile]: the pIC50 at human DGKα was 6.30; at human DGKζ (setting [2]) it was 3.92; in assay [1], 7.12.
Consider `Cn1c(=O)c(C#N)c(N2CCN(Cc3cc(F)ccc3F)CC2)c2nc(Cl)ccc21` [Example 318, 6-chloro-4-{4-[(2,5-difluorophenyl)methyl]piperazin-1-yl}-1-methyl-2-oxo-1,2-dihydro-1,5-naphthyridine-3-carbonitrile], for which the negative-log IC50 (pIC50) is 6.07 on human DGKα; 3.85 at human DGKζ (setting [2]); 6.54 in assay [1] (Homo sapiens, Raji).
For the compound `C=CCOc1cccc(C)c1C(c1ccc(F)cc1)N1CCN(c2c([N+](=O)[O-])c(=O)n(C)c3ccc(Br)nc23)CC1` (single isomer, unassigned) [Example 96, 4-(4-((2-(allyloxy)-6-methylphenyl)(4-fluorophenyl)methyl)piperazin-1-yl)-6-bromo-1-methyl-3-nitro-1,5-naphthyridin-2(1-H)-one], the pIC50 at human DGKα was 4.06; on human DGKζ (setting [2]) it was 4.28; in assay [1] it was 6.44.
`Cn1c(=O)c(C#N)c(N2CCN(Cc3cc(F)cc(F)c3)CC2)c2nc(Cl)ccc21` [Example 291, 6-chloro-4-{4-[(3,5-difluorophenyl)methyl]piperazin-1-yl}-1-methyl-2-oxo-1,2-dihydro-1,5-naphthyridine-3-carbonitrile]: the pIC50 at human DGKα was 6.48; on human DGKζ (setting [2]) it was below 4.09; in assay [1] (Homo sapiens, Raji), 6.96.
The like results for `Cn1c(=O)c(C#N)c(N2CCN(Cc3ccccc3NC(=O)c3ccccc3)CC2)c2nc(Br)ccc21` [Example 213, N-(2-((4-(6-bromo-3-cyano-1-methyl-2-oxo-1,2-dihydro-1,5-naphthyridin-4-yl)piperazin-1-yl)methyl)phenyl)benzamide] were, in that order, 5.51, below 3.62 and 6.15.
The corresponding values for `Cn1c(=O)c(C#N)c(N2CCN(Cc3cccc(F)c3F)CC2)c2nc(Cl)ccc21` [Example 330, 6-chloro-4-{4-[(2,3-difluorophenyl)methyl]piperazin-1-yl}-1-methyl-2-oxo-1,2-dihydro-1,5-naphthyridine-3-carbonitrile] are 5.43, below 3.62 and 6.30.
The corresponding values for `Cn1c(=O)c(C#N)c(N2CCN(Cc3ccccc3F)CC2)c2nc(Br)ccc21` [Example 344, 6-bromo-4-{4-[(2-fluorophenyl)methyl]piperazin-1-yl}-1-methyl-2-oxo-1,2-dihydro-1,5-naphthyridine-3-carbonitrile] are 6.40, below 3.62 and 6.09.
Take `N#Cc1c(N2CCN(C(c3ccc(F)cc3)c3ccc(F)cc3)CC2)c2nc(Br)ccc2n(CC2CC2)c1=O` [Example 161, 4-(4-(bis(4-fluorophenyl)methyl)piperazin-1-yl)-6-bromo-1-(cyclopropylmethyl)-2-oxo-1,2-dihydro-1,5-naphthyridine-3-carbonitrile]: the pIC50 is below 3.62 on human DGKα; below 4.09 at human DGKζ (setting [2]); 5.24 in assay [1] (Homo sapiens, Raji).
Consider `CN(C)C(=O)c1ccc2c(n1)c(N1CCN(C(c3ccc(F)cc3)c3ccc(F)cc3)CC1)c(C#N)c(=O)n2C` [Example 231, 8-(4-(bis(4-fluorophenyl)methyl)piperazin-1-yl)-7-cyano-N,N,5-trimethyl-6-oxo-5,6-dihydro-1,5-naphthyridine-2-carboxamide], for which the pIC50 at human DGKα was 3.77; at human DGKζ (setting [2]), below 3.62; in assay [1] (Homo sapiens, Raji), 5.52.
The like results for `Cn1c(=O)c(C#N)c(N2CCN(Cc3ccc(Cl)cc3)CC2)c2nc(Cl)ccc21` [Example 417, 6-chloro-4-{4-[(4-chlorophenyl)methyl]piperazin-1-yl}-1-methyl-2-oxo-1,2-dihydro-1,5-naphthyridine-3-carbonitrile] were, in that order, 6.60, below 3.62 and 6.82.
The corresponding values for `Cn1c(=O)c(C#N)c(N2CCN(Cc3ccccc3O)CC2)c2nc(Cl)ccc21` [Example 198, 6-chloro-4-(4-(2-hydroxybenzyl)piperazin-1-yl)-1-methyl-2-oxo-1,2-dihydro-1,5-naphthyridine-3-carbonitrile] are 7.13, 3.82 and 6.30.
The corresponding values for `Cn1c(=O)c(C#N)c(N2CCN(Cc3cccc4nc[nH]c34)CC2)c2nc(Br)ccc21` [Example 360] are 4.32, below 3.62 and 5.02.
